{"source": "patent US20110268742A1", "about": "“PCTP MODULATORS IN THE TREATMENT OF ACNE, OF SEBORRHOEIC DERMATITIS OR OF HYPERSEBORRHOEA” (Galderma Research & Development, priority 2008, published 2011)", "key": {"[1]": {"tested_on": "PCTP (phosphatidylcholine transfer protein) gene expression", "test": "Expression of PCTP in rat sebaceous gland (epidermal split) after topical PPARgamma agonist, real-time PCR kinetics", "assay_type": "in vivo", "details": "for PCTP relative induction: topical 1% in acetone, female Fuzzy rats, standardized to 18S, versus carrier group; for PCTP expression in vivo at the level of the sebaceous glands following topical treatment: topical treatment with PPARγ ligand at 1%", "text": "Number per batch: 40 (8 animals per group)\nTreatment: Route of administration: topical\nCompound/batch: PPARgamma agonists: • A: 5-{4-[2-(methylpyridin-2-ylamino)ethoxy]-benzyl}thiazolidine-2,4-dione • B: (2-methoxyethoxymethoxy)naphthalene-2-carboxylic acid [4′-(2,4-dioxothazolidin-5-ylmethyl)biphenyl-3-ylmethyl]methylamide or rosiglitazone • C: (S)-2-ethoxy-3-{4-[6-(3-heptyl-1-methyl-ureido)pyridin-2-yl]phenyl}propionic acid\nMethod of evaluation: The animals are weighed at the beginning and at the end of the study. Skin biopsies are taken (6 samples of skin excised per rat) in order to analyse the expression of the genes (RNA extraction, reverse transcriptase and real-time PCR). The samples are stored overnight at 4° C. before incubation in 1M sodium bromide (NaBr) for 2 hours at 37° C. After incubation, the samples are separated into epidermis or dermis. The epidermal samples are stored at […]. Under these conditions, the sebaceous glands are in the epidermal split. PCRs are carried out, beginning with the cDNAs originating from the epidermal splits controlling sebaceous glands from control rats or rats treated with a PPARγ agonist; the mRNA is extracted using a column and quantified. The quality of the mRNAs is measured and is represented by the 18S/28S ratio. The results are standardized with respect to 18S, expressed as relative induction versus untreated animals (carrier group). The statistical analysis is obtained using internal software based on a modified Monte Carlo statistical analysis."}, "[2]": {"tested_on": "PCTP (phosphatidylcholine transfer protein) gene expression", "test": "Expression of PCTP in Fuzzy rat epidermal split after 8 days of topical treatment, Affymetrix transcriptome analysis", "assay_type": "in vivo", "details": "female Fuzzy rats, topical 1% once a day for 8 days, Affymetrix 1387058_at, control condition 143", "procedure": "Fuzzy Rat Epidermal Split Expression Data\nThe studies are carried out in female Fuzzy rats (Hsd: Fuzzy-fz) ten weeks old at the beginning of the study. The animals are treated at a dose of 1% (PPARg agonist rosiglitazone in solution in acetone) once a day for 8 days. Two hours after the final treatment, the animals are sacrificed by euthanasia and the skin on the back is removed. After incubation in dispase, the epidermis carrying the sebaceous glands is detached from the dermis (epidermal split). After grinding of the samples, the mRNA is prepared using Qiagen columns, in accordance with the supplier's instructions. The material thus prepared is subjected to large-scale transcriptome analysis on an Affymetrix platform. The data are subsequently standardized and, after statistical analysis, the results produced are expressed in arbitrary expression units (see below) accompanied, for each piece of data, by a statistical value for presence of the transcript (presence=1; absence=0)."}}}
{"molecule": "CCCCCCCNC(=O)N(C)c1cccc(-c2ccc(C[C@H](OCC)C(=O)O)cc2)n1", "note": "[C, (S)-2-ethoxy-3-{4-[6-(3-heptyl-1-methyl-ureido)pyridin-2-yl]phenyl}propionic acid]", "values": [{"measurement": "PCTP relative induction", "setting": "[1]; 0 hours", "result": 1}, {"measurement": "PCTP relative induction", "setting": "[1]; 8 hours", "result": 1.54}, {"measurement": "PCTP relative induction", "setting": "[1]; 24 hours", "result": 3.69}, {"measurement": "PCTP relative induction", "setting": "[1]; 48 hours", "result": 3.11}, {"measurement": "PCTP relative induction", "setting": "[1]; 96 hours", "result": 1.38}, {"measurement": "PCTP expression in vivo at the level of the sebaceous glands following topical treatment", "setting": "[1]", "result": "modulated"}]}
{"molecule": "(2-methoxyethoxymethoxy)naphthalene-2-carboxylic acid [4′-(2,4-dioxothazolidin-5-ylmethyl)biphenyl-3-ylmethyl]methylamide", "values": [{"measurement": "Expression after treatment with 1% rosiglitazone", "setting": "[2]", "result": "445 arbitrary expression units"}, {"measurement": "PCTP relative induction", "setting": "[1]; 0 hours", "result": 1}, {"measurement": "PCTP relative induction", "setting": "[1]; 8 hours", "result": 2.57}, {"measurement": "PCTP relative induction", "setting": "[1]; 24 hours", "result": 2.79}, {"measurement": "PCTP relative induction", "setting": "[1]; 48 hours", "result": 3.37}, {"measurement": "PCTP relative induction", "setting": "[1]; 96 hours", "result": 1.15}, {"measurement": "PCTP expression in vivo at the level of the sebaceous glands following topical treatment", "setting": "[1]", "result": "modulated"}]}
{"molecule": "CN(CCOc1ccc(CC2SC(=O)NC2=O)cc1)c1ccccn1", "note": "(stereo not shown) [A, 5-{4-[2-(methylpyridin-2-ylamino)ethoxy]-benzyl}thiazolidine-2,4-dione]", "values": [{"measurement": "PCTP relative induction", "setting": "[1]; 0 hours", "result": 1}, {"measurement": "PCTP relative induction", "setting": "[1]; 8 hours", "result": 7.06}, {"measurement": "PCTP relative induction", "setting": "[1]; 24 hours", "result": 8.54}, {"measurement": "PCTP relative induction", "setting": "[1]; 48 hours", "result": 6.70}, {"measurement": "PCTP relative induction", "setting": "[1]; 96 hours", "result": 3.38}, {"measurement": "PCTP expression in vivo at the level of the sebaceous glands following topical treatment", "setting": "[1]", "result": "modulated"}]}
